Source: patent US20250129021A1, “SMALL MOLECULE PROTEIN SYNTHESIS MODULATORS” (Interdict Bio, Inc., priority 2023, published 2025)
pIC50: −log10 of the molar value. Read-outs that look alike come from different tables or passages of the source.

Experiments:
MYC = assay: In vitro transcription-translation (IVTT) assay, MYC reporter; format: biochemical; conditions: HeLa S3 lysate, 2 hrs at 30° C.
How it was run: (§1)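 Reporter: mCherry, P2A, then 3×FLAG-target peptide-sfGFP fusion, IRES-initiated; HeLa S3 lysate IVTT; cpd dilutions 30 μM−0.1 μM half-log in 100% DMSO (dilution-plate conc); DNA added last; 2 h, 30° C; PBS quench.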

CCND1 = assay: In vitro transcription-translation (IVTT) assay, CCND1 reporter; format: biochemical; conditions: HeLa S3 lysate, sfGFP/mCherry ratio
How it was run: as §1

MCL-1 = assay: In vitro transcription-translation (IVTT) assay, MCL-1 reporter; format: biochemical; conditions: HeLa S3 lysate, sfGFP/mCherry ratio
How it was run: as §1

ALK = assay: In vitro transcription-translation (IVTT) assay, ALK reporter; format: biochemical; conditions: HeLa S3 lysate, sfGFP/mCherry ratio, 2 hrs at 30° C.
How it was run: as §1

KRAS G12D = assay: In vitro transcription-translation (IVTT) assay, KRAS G12D reporter; format: biochemical; conditions: HeLa S3 lysate, sfGFP/mCherry ratio, 2 hrs at 30° C.
How it was run: as §1

HEK 293T = assay: Cell viability (CellTiter-Fluor), HEK 293T; format: cell-based; conditions: Homo sapiens, 24-72 hrs
Description: (§2) Count and dispense 2,000-10,000 cells per well (100 μL volume) in black 96-well tissue culture microplate and let cells adhere overnight. Add compound dissolved in 100% DMSO to each well as needed and incubate cells in standard culture conditions for 24-72 hrs. Final DMSO concentration in each well should be 0.1-0.5%. At the desired time point, gently aspirate compound containing media and replace with PBS to wash. Repeat wash step for 2 total washes. Remove PBS and add 100 μL CellTiter-Fluor reagent (Promega) reagent to each well. Seal plate and incubate 1 hr at room temperature with orbital shaking. Analyze fluorescence using plate reader to quantify viable cells compared with vehicle (DMSO) control.

HPAF-II = assay: Cell viability (CellTiter-Fluor), HPAF-II; format: cell-based; conditions: Homo sapiens, 24-72 hrs
Description: as §2

KLE = assay: Cell viability (CellTiter-Fluor), KLE; format: cell-based; conditions: Homo sapiens, 24-72 hrs
Description: as §2

LS411N = assay: Cell viability (CellTiter-Fluor), LS411N; format: cell-based; conditions: Homo sapiens, LS-411N, 24-72 hrs
Description: as §2

MCF7 = assay: Cell viability (CellTiter-Fluor), MCF7; format: cell-based; conditions: Homo sapiens, 24-72 hrs
Description: as §2

NCI-H1915 = assay: Cell viability (CellTiter-Fluor), NCI-H1915; format: cell-based; conditions: 24-72 hrs
Description: as §2

HCC38 = assay: Cell viability (CellTiter-Fluor), HCC38; format: cell-based; conditions: Homo sapiens, 24-72 hrs
Description: as §2

HEPG2 = assay: Cell viability (CellTiter-Fluor), HEPG2; format: cell-based; conditions: Homo sapiens, 24-72 hrs
Description: as §2

KATO-III = assay: Cell viability (CellTiter-Fluor), KATO-III; format: cell-based; conditions: Homo sapiens, 24-72 hrs
Description: as §2

MS751 = assay: Cell viability (CellTiter-Fluor), MS751; format: cell-based; conditions: 24-72 hrs
Description: as §2

T47D = assay: Cell viability (CellTiter-Fluor), T47D; format: cell-based; conditions: Homo sapiens, 24-72 hrs
Description: as §2

BCL-2 = assay: In vitro transcription-translation (IVTT) assay, BCL-2 reporter; format: biochemical; conditions: HeLa S3 lysate, sfGFP/mCherry ratio, 2 hrs at 30° C.
How it was run: as §1

CCNTB1 = assay: In vitro transcription-translation (IVTT) assay, CCNTB1 reporter; format: biochemical; conditions: HeLa S3 lysate, sfGFP/mCherry ratio
How it was run: (§3)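 Cell-free HeLa S3 lysate reactions expressing sfGFP/mCherry reporter constructs ran 2 h at 30 °C with compound from half-log DMSO series (30 μM–0.1 μM as prepared), then were quenched with PBS. No-DNA background was subtracted, and the sfGFP/mCherry ratio was normalized to the no-drug control and fit for IC50.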

cGAS = assay: In vitro transcription-translation (IVTT) assay, cGAS reporter; format: biochemical; conditions: HeLa S3 lysate, sfGFP/mCherry ratio
Description: (§4) In vitro transcription-translation assay setup: Each assay includes a master mix containing lysate and shared components, a 96-well plate containing compound titrations for testing, a 96-well DNA plate with reporter constructs to be tested, 96-well skirted PCR plates, and 96-well flat-bottom, black, fluorescent assay plates. Reaction materials setup: (A) Master mix—15 mL conical tube (3 mL of HeLa S3 Lysate described above; 0.6 mL of ThermoFisher Accessory Proteins (#88882); 1.2 ml of ThermoFisher Reaction Mix (#88882); 0.54 mL of nuclease-free Water); (B) 96-Well Master Mix+Compound Plate (Half-log dilutions (30 μM−0.1 μM) of 4 compounds of interest are prepared in 100% DMSO); 96-Well DNA Plate (Five DNA constructs are plated into single columns within the plate. Row 1 of the column contains nuclease free H2O, all other wells contain 110 ng/μL plasmid DNA). Reactions are started by mixing 155 μL of master mix and 3.5 μL of compound serial dilutions, then 9.1 μL of master mix+compound mixture is aliquoted across 5 96-well plates. Reactions begin with final addition of 2 μL of DNA for a 11.1 μL reaction volume in each well. The entire plate is sealed, and incubated for 2 hrs at 30° C. After 2 hrs, quench the assay using 45 μL of PBS, and transfer 50 μL to a flat-bottom black microplate Quantify the sfGFP and mCherry signals from each well on each plate, taking 3 reads of each plate, and perform data analysis below.
(§5) In vitro transcription-translation assay data analysis: Each plate is read three times in channels for both sfGFP and mCherry signals. The average signal across these 3 reads is then calculated for further analysis. Control wells containing no DNA reporter are subtracted from reporter wells in the same column to remove auto-fluorescence of the lysate. Then, the ratio of sfGFP/mCherry is calculated per well, and these ratios are averaged across the triplicate experiments on the same plate. Finally, the ratio of each titration concentration is normalized to the no drug control to create the normalized stalling metric. The error on this measurement is determined by propagating error through the averaging and normalization steps. Values are plotted and fit for IC50 determination for each test sequence and titration of compound.

STING = assay: In vitro transcription-translation (IVTT) assay, STING reporter; format: biochemical; conditions: HeLa S3 lysate, sfGFP/mCherry ratio
Description: as §4, §5

JAK1 = assay: In vitro transcription-translation (IVTT) assay, JAK1 reporter; format: biochemical; conditions: HeLa S3 lysate, sfGFP/mCherry ratio
Description: as §4, §5

NFKB1 = assay: In vitro transcription-translation (IVTT) assay, NFKB1 reporter; format: biochemical; conditions: HeLa S3 lysate, sfGFP/mCherry ratio
How it was run: as §3

[1] = IVTT assay, MYC reporter, normalized sfGFP/mCherry ratio, half-log dilutions 30 μM-0.1 μM
[2] = IVTT assay, read-out: MCL1 IC50

Structure (SMILES) | pIC50 (MYC; sfGFP/mCherry ratio) | pIC50 (CCND1; 2 hrs at 30° C.) | pIC50 (MCL-1; 2 hrs at 30° C.) | pIC50 (ALK) | pIC50 (KRAS G12D) | pIC50 (HEK 293T) | pIC50 (HPAF-II) | pIC50 (KLE) | pIC50 (LS411N) | pIC50 (MCF7) | pIC50 (NCI-H1915) | pIC50 (HCC38) | pIC50 (HEPG2) | pIC50 (KATO-III) | pIC50 (MS751) | pIC50 (T47D) | pIC50 (BCL-2) | pIC50 (MYC; [1]) | pIC50 (CCND1; IVTT assay) | pIC50 (MCL-1; [2]) | other results
COc1ccc(C[C@H]2NC[C@H](O)[C@H]2OC(=O)NCc2c[nH]nn2)cc1 [V187536, (2R,3S,4S)-4-hydroxy-2-[(4-methoxyphenyl)methyl]pyrrolidin-3-yl N-(1H-1,2,3-triazol-4-ylmethyl) carbamate; trifluoroacetic acid] | > 5.00 | > 5.00 | > 5.00 | > 5.00 | > 5.00 | 6.00 to 6.60 | 5.40 to 6.00 | 5.40 to 6.00 | 5.40 to 6.00 | 5.40 to 6.00 | 5.40 to 6.00 | 5.40 to 6.00 | 5.40 to 6.00 | 5.40 to 6.00 | 6.00 to 6.60 | 5.40 to 6.00 | – | – | – | – | –
COc1ccc(C[C@H]2NC[C@H](O)[C@H]2OC(=O)NCc2ccccc2)cc1 [V187190, (2R,3S,4S)-4-hydroxy-2-[(4-methoxyphenyl)methyl]pyrrolidin-3-yl N-benzylcarbamate; trifluoroacetic acid] | > 5.00 | > 5.00 | > 5.00 | > 5.00 | > 5.00 | > 6.60 | 6.00 to 6.60 | > 6.60 | > 6.60 | > 6.60 | > 6.60 | 6.00 to 6.60 | > 6.60 | > 6.60 | > 6.60 | > 6.60 | > 5.00 | – | – | – | –
COc1ccc(C[C@H]2NC[C@H](O)[C@H]2OC(=O)NCCc2cn[nH]c2)cc1 [V187509, (2R,3S,4S)-4-hydroxy-2-[(4-methoxyphenyl)methyl]pyrrolidin-3-yl N-[2-(1H-pyrazol-4-yl)ethyl]carbamate] | > 5.00 | > 5.00 | > 5.00 | – | > 5.00 | > 6.60 | 6.00 to 6.60 | 6.00 to 6.60 | 6.00 to 6.60 | 6.00 to 6.60 | 6.00 to 6.60 | 6.00 to 6.60 | 5.40 to 6.00 | 6.00 to 6.60 | > 6.60 | 6.00 to 6.60 | > 5.00 | – | – | – | –
O=C(NCCOC(F)(F)F)O[C@@H]1[C@@H](O)CN[C@@H]1Cc1ccc(-c2cnco2)cc1 [V192265, (2R,3S,4S)-4-hydroxy-2-{[4-(1,3-oxazol-5-yl)phenyl]methyl}pyrrolidin-3-yl N-[2-(trifluoromethoxy)ethyl]carbamate] | – | – | – | – | – | – | – | – | – | – | – | – | – | – | – | – | – | > 5.00 | > 5.00 | > 5.00 | pIC50 (CCNTB1): > 5.00; pIC50 (cGAS): > 5.00; pIC50 (STING): > 5.00; pIC50 (JAK1): > 5.00; pIC50 (NFKB1): > 5.00
O=C(NCc1cccc(F)c1)O[C@@H]1[C@@H](O)CN[C@@H]1Cc1ccc(-c2cnc(C(F)(F)F)s2)cc1 [V192114, (2R,3S,4S)-4-hydroxy-2-({4-[2-(trifluoromethyl)-1,3-thiazol-5-yl]phenyl}methyl)pyrrolidin-3-yl N-[(3-fluorophenyl)methyl]carbamate] | – | – | – | – | – | – | – | – | – | – | – | – | – | – | – | – | – | < 4.52 | < 4.52 | < 4.52 | pIC50 (CCNTB1): < 4.52; pIC50 (cGAS): > 5.00; pIC50 (STING): < 4.52; pIC50 (JAK1): 4.70 to 5.00; pIC50 (NFKB1): > 5.00
COc1ccc(C[C@H]2NC[C@H](O)[C@H]2OC(=O)NCc2ccncc2)cc1 [V187987, (2R,3S,4S)-4-hydroxy-2-[(4-methoxyphenyl)methyl]pyrrolidin-3-yl N-(pyridin-4-ylmethyl)carbamate] | > 5.00 | > 5.00 | > 5.00 | – | – | > 6.60 | 6.00 to 6.60 | 6.00 to 6.60 | > 6.60 | > 6.60 | > 6.60 | 6.00 to 6.60 | 5.40 to 6.00 | 6.00 to 6.60 | 6.00 to 6.60 | > 6.60 | > 5.00 | – | – | – | –
COc1ccc(C[C@H]2NC[C@H](O)[C@H]2OC(=O)NCC2CC2)cc1 [V187189, (2R,3S,4S)-4-hydroxy-2-[(4-methoxyphenyl)methyl]pyrrolidin-3-yl N-(cyclopropylmethyl)carbamate; trifluoroacetic acid] | > 5.00 | – | > 5.00 | > 5.00 | > 5.00 | > 6.60 | 6.00 to 6.60 | 6.00 to 6.60 | > 6.60 | 6.00 to 6.60 | 6.00 to 6.60 | 6.00 to 6.60 | – | 6.00 to 6.60 | 6.00 to 6.60 | 6.00 to 6.60 | – | – | – | – | –
O=C(NCC[C@@H]1CCCN1)O[C@@H]1[C@@H](O)CN[C@@H]1Cc1ccc(-c2cnco2)cc1 [V192047, (2R,3S,4S)-4-hydroxy-2-{[4-(1,3-oxazol-5-yl)phenyl]methyl}pyrrolidin-3-yl N-{2-[(2S)-pyrrolidin-2-yl]ethyl}carbamate] | – | – | – | – | – | – | – | – | – | – | – | – | – | – | – | – | – | > 5.00 | > 5.00 | > 5.00 | pIC50 (CCNTB1): > 5.00; pIC50 (cGAS): > 5.00; pIC50 (STING): > 5.00; pIC50 (JAK1): > 5.00; pIC50 (NFKB1): > 5.00
